Patent publication US4261994A, “1,2,4-Oxadiazole derivatives, their preparation and pharmaceutical use” (Synthelabo, priority 1977, dated 1981)
Read-outs that look alike come from different tables or passages of the source.

Columns and labels:
[1] = tested on: spontaneously hypertonic male rats; assay: Anti-hypertensive activity in spontaneously hypertonic male rats (method of Gerold and Tschirky), systolic pressure by pulse at caudal artery; type: in vivo; conditions: Rattus norvegicus, po; for change in vivo at 20 mg/kg: administered dose 20 mg/kg orally; for change in vivo at 5 mg/kg: administered dose 5 mg/kg orally
Protocol: The anti-hypertensive activity is evaluated on spontaneously hypertonic male rats in accordance with the method of Gerold and Tschirky (Arzneim. Forsch, 1968, 18, 1,285). The systolic pressure is measured by taking the pulse at the level of the caudal artery. […]

[2] = Toxicity, 50% lethal dose, intraperitoneal administration to CD1 male rats; conditions: rat, in vivo, ip; intraperitoneally to rats, fasted 18 hours; read-out: 50% lethal dose (LD 50)
Protocol: The toxicity of the compounds (I) was determined by intraperitoneal administration to CD1 (Charles River) male rats weighing 100 to 120 g, which had fasted for 18 hours.

[3] = 4 hours, read-out: Anti-hypertensive activity %, 4 hours
[4] = 24 hours, read-out: Anti-hypertensive activity %, 24 hours

| Structure (SMILES) | change in vivo at 20 mg/kg [1, 3] | change in vivo at 20 mg/kg [1, 4] | LD50 [2] | change in vivo at 5 mg/kg [1, 3] | change in vivo at 5 mg/kg [1, 4] |
| --- | --- | --- | --- | --- | --- |
| CN(C)c1noc(Cc2c(Cl)cccc2Cl)n1 [Compound 1] | -33% | -14% |  |  |  |
| CNc1noc(Cc2c(Cl)cccc2Cl)n1 [Compound 2, 3-Methylamino-5-(2,6-dichlorobenzyl)-1,2,4-oxadiazole] | -18% | -9% |  |  |  |
| CN(C)CCCNc1noc(Cc2c(Cl)cccc2Cl)n1 [Compound 6] | -5% | -7% | < 250 mg/kg |  |  |
| CN(C)C=Nc1noc(Cc2c(Cl)cccc2Cl)n1 [Compound 9] | -29% | -15% | > 500 mg/kg |  |  |
| CN1CCN(C=Nc2noc(Cc3c(Cl)cccc3Cl)n2)CC1 [Compound 10] | -29% |  | < 500 mg/kg |  |  |
| OCCN(C=Nc1noc(Cc2c(Cl)cccc2Cl)n1)CCO [Compound 11, 3-[N,N-Bis-(2-hydroxyethyl)-formamidino]-5-(2,6-dichlorobenzyl)-1,2,4-oxadiazole] | -32% |  | ≥ 500 mg/kg |  |  |
| Cc1cccc(C)c1Cc1nc(N=CN(C)C)no1 [Compound 14] | -22% | -13% |  |  |  |
| CN(C)C=Nc1noc(Cc2c(F)cccc2Cl)n1 [Compound 15] |  |  | ≤ 500 mg/kg | -26% | -6% |
| Nc1noc(Cc2c(F)cccc2F)n1 [Compound 16] |  |  |  | -18% | -1% |
| Nc1noc(Cc2c(Cl)cccc2Cl)n1 [Compound 18, 3-Amino-5-(2,6-dichlorobenzyl)-1,2,4-oxadiazole] |  |  | 250 mg/kg | -18% | -3% |
| Nc1noc(Cc2cc(Cl)ccc2Cl)n1 [Compound 19] |  |  | ≥ 500 mg/kg | -18% | -3% |
